Data published in patent publication US12251459B2, “Compositions, formulations, and methods for hair treatment” (Oddity Labs, LLC, priority 2022, dated 2025).

Experiments:
HepG2 cells = test: Caspase 3/7 activity in HepG2 cells; assay type: cell-based; conditions: HepG2, >2-log concentration range, versus % v/v-matched DMSO
Protocol: Cells were treated with either the example compounds or vehicle control containing correspondingly % v/v-matched amounts of DMSO spanning a >2-log concentration range. Data represents mean±s.d. and representative of at least 2 experimental replicates.
HepG2 cells are an immortalized liver cell line commonly used to study apoptosis induced by small molecules. Cells were treated with either the example compounds or vehicle control containing correspondingly % v/v-matched amounts of DMSO spanning a >2-log concentration range. Data represents mean±s.d. and representative of at least 2 experimental replicates.

[1] = test system: human hair follicle dermal papilla cells (hFDPC); test: Human follicle dermal papilla cells (hFDPC) proliferation assay; assay type: cell-based; conditions: hFDPCs supplemented with BIO, BMP-2 and FGFβ
Source text: In Table 8, A represents less than 20% of increased proliferation of hFDPCs, B represents 20-40%, and C represents larger than 40% of increased proliferation of hFDPCs.

TK.6 lymphoblasts = test: TK.6 micronucleus assay; assay type: cell-based
Protocol: (§1) The safety/toxicology profiles of a compound or salt of the present disclosure was evaluated via a series of in vitro genotoxicity assays, including the SOS-chromotest to determine bacterial genotoxicity, and the TK.6 micronucleus assay to determine chromosomal damage and forward mutations. Standard reactive oxygen species (ROS) and caspase 3/7 assay were conducted to determine general cellular toxicity. Moreover, a series of sensitization tests were conducted to predict any potential skin sensitivity. These include the direct peptide reactivity assay to evaluate haptenization, the KeratinoSens reporter assay to determine potential sensitivity via the activation of a cytoprotective pathway, and an immunological assay using human immature monocyte-derived dendritic cells to evaluate any potential immunogenicity.
TK.6 lymphoblasts are a well-studied cell line commonly used for gene mutation analyses. They are heterozygous for the thymidine kinase gene (TK) and enable the detection of forward mutations and chromosomal damage, which manifests as micronuclei and are detectable via flow cytometry.
TK.6 cells were dosed with the example compounds or a vehicle control (0.1% v/v DMSO) and cultured with or without S9 metabolic activation for 24 hr. […] Methyl methanesulfonate, a known genotoxic, alkylating agent was used as a positive control for micronuclei detection.
The micronucleus assay was also performed to determine if the compounds are genotoxic by evaluating the presence of micronuclei. […] In combination. […] I-17 elicited genotoxicity at >3.125 μg/mL.

[2] = test system: follicle dermal papilla cells; test: Reactive oxygen species (ROS) activity in follicle dermal papilla cells; assay type: cell-based; conditions: 5 μg/mL, 24 hr, relative to vehicle control (0.1% v/v DMSO)
Protocol: Normalized reactive oxygen species (ROS) activity in follicle dermal papilla cells were analyzed after treatment with 5 μg/mL example compounds relative to vehicle control (0.1% v/v DMSO) after 24 hr. The increase in ROS levels is harmful to cell homeostasis, structures, and functions and results in oxidative stress.

[3] = test system: Human follicle papilla cells; test: Functional stability: follicle papilla cell proliferation after pH and temperature pre-treatment of the compound; assay type: cell-based; conditions: prepared in DMSO, DMI or 1:1 DMI/ethanol, diluted in pH-adjusted water, varying temperatures, 7 days; cells dosed 5 μg/mL, 48 hr
Protocol: Compound VII-3 was prepared in various solvents (DMSO; dimethyl sulfoxide, DMI; dimethyl isosorbide, or a 1:1 mixture of dimethyl isosorbide and ethanol), the diluted in pH-adjusted water and left at varying temperatures for 7 days. Human follicle papilla cells were dosed at 5 μg/mL with the example compound and further supplemented with 6-bromoindirubin-39-Oxime (BIO), recombinant bone morphogenetic protein-2 (BMP-2), and basic fibroblast growth factor (FGFβ), whose combination was previously found to preserve in vivo dermal papilla gene signatures. Normalized proliferation follicle papilla cell proliferation was analyzed after 48 hr following the treatment with the example compound pre-treated across a range of pH conditions (FIG. 7A) and temperature conditions (FIG. 7B). Data represents mean±s.d. and representative of n=2 donors.

bacteria = test: SOS chromotest (bacteria-based genotoxicity test, β-galactosidase activity); assay type: cell-based; conditions: varying concentrations; 4-NQ as known genotoxin
Protocol: The SOS chromotest is a well-established bacteria-based test for genotoxicity.
as §1

[4] = Clinical consumer perception study; assay type: in vivo, human
Protocol: The clinical test was performed by Eurofins|CRL, Inc. The test followed established, standardized procedures for clinical testing designed to ensure the well-being of clinical study subjects and the generation of reliable study data. Subjects were female and ranged in age from 27-65 years. Subjects used a simple, water-based formula containing an example compound, VII-3 (at 0.02% v/v) every 2 days in the morning or night on dry or towel-dried hair. Approximately 2 mL was applied directly to the hairline. No randomization was required for the study and subjects were blinded to the name of the test material.
Photographs of subjects' hair were taken 6 weeks after the treatment with the representative compounds (FIG. 6). Subjects were female and ranged in age from 27-65 years. Subjects used a simple, water-based formula containing an example compound VII-3 (at 0.02% v/v) every 2 days in the morning or night on dry or towel-dried hair. Approximately 2 mL was applied directly to the hairline. No randomization was required for the study and subjects were blinded to the name of the test material. FIG. 6. highlights specific regions of the included participants' scalps, juxtaposing pictures taken before and after the study. Based on clinical surveys, 97% of women reported an improvement in their hair's appearance while 82% reported increased hair growth and thickness.
After the conclusion of the study, subjects completed a Consumer perception questionnaire. Table 24 includes percentages of each response for the corresponding prompt in the questionnaire. The specific response choice is specified within the parentheses below the percentage.

Nrf2-ARE pathway = test: KeratinoSens Nrf2-ARE reporter assay (ARE-luciferase); assay type: cell-based; conditions: cinnamic aldehyde as known sensitizing compound
Protocol: as §1
The Nrf2-ARE pathway is a master regulator of cytoprotective responses to oxidative stress, and is an early indicator of skin sensitization. Nrf2 (nuclear factor erythroid 2-related factor) is a transcription factor that binds to antioxidant responsive elements (ARE). By fusing ARE to the light-producing luciferase gene, a KeratinoSens Nrf2-ARE reporter assay was performed whereby luciferase signal is directly correlated to Nrf2-ARE pathway activation. Normalized ARE-luciferase activity was measured using a known sensitizing compound (cinnamic aldehyde) and example compounds.

[5] = response: I haven't noticed a change

For `C=CCc1cc(/C=C2\C(=O)NC(=S)N(c3ccc(OC)cc3)C2=O)cc(OC)c1O` [I-17], the “Normalized caspase 3/7 activity” value (HepG2 cells) was “significant caspase-3/7 activation at the highest concentration”, the “Percent Increase Proliferation of hFDPCs (%)” value [1] was “C (C represents larger than 40% of increased proliferation of hFDPCs)” and the “concentration at which genotoxicity was elicited in TK.6 micronuclei assay” value (TK.6 lymphoblasts; 24 hr) was > 3.125 µg/mL.

In the case of `C=CCc1cc(/C=C2\C(=O)NC(=S)N(c3ccccc3OC)C2=O)cc(OCC)c1O` [I-18], the “Percent Increase Proliferation of hFDPCs (%)” value [1] is reported as “B (B represents 20-40%)” and the “Normalized reactive oxygen species (ROS) activity” value [2] is reported as “higher than other compounds”.

For `CSc1nc(-c2ccco2)nn1S(C)(=O)=O` [VII-3, 1H-1,2,4-Triazole, 3-(2-furanyl)-1-(methylsulfonyl)-5-(methylthio)-], the “Normalized caspase 3/7 activity” value (HepG2 cells) was “did not exhibit any caspase activation”, the “Percent Increase Proliferation of hFDPCs (%)” value [1] was “B (B represents 20-40%)” and the “functional stability (normalized follicle papilla cell proliferation after pre-treatment of the compound)” value [3] was “functionally stable across physiologically-relevant pH and temperature ranges”. For the same compound, the “genotoxic effects in SOS chromotest (normalized β-galactosidase activity)” value (bacteria) was “did not exhibit any genotoxic effects”, the “Since the beginning of the study, I have noticed a decrease of the number of hairs lost in the shower.” value ([4]; response: Agree) was 53.1% and the “Since the start of the study, I can see more hair in the areas where the serum was applied.” value ([4]; response: Agree) was 53.1%. For the same compound, the “Since the beginning of the study, I have noticed a decrease of the number of hairs lost in the shower.” value ([4]; response: Disagree) was 6.3%, the “Since the start of the study, I can see more hair in the areas where the serum was applied.” value ([4]; response: Disagree) was 3.1% and the “Because of the treatment I have received since the start of the study, the appearance of my hair is:” value (shortened to “Because”) ([4]; response: Fuller) was 56.3%. For the same compound, the “Since the beginning of the study, I have noticed a decrease of the number of hairs lost in the shower.” value [4, 5] was 21.9%, the “Since the start of the study, I can see more hair in the areas where the serum was applied.” value [4, 5] was 31.3% and the “Since the start of the study, how effective do you think the treatment has been in increasing your hair growth/thickness?” value ([4]; response: Not effective at all) was 0%. For the same compound, the “Since the start of the study, how effective do you think the treatment has been in slowing down your hair loss?” value ([4]; response: Not effective at all) was 3.1%, the “Since the start of the study, how effective do you think the treatment has been in increasing your hair growth/thickness?” value ([4]; response: Not very effective) was 18.8% and the “Since the start of the study, how effective do you think the treatment has been in slowing down your hair loss?” value ([4]; response: Not very effective) was 15.6%. For the same compound, the “Since the start of the study, how effective do you think the treatment has been in increasing your hair growth/thickness?” value ([4]; response: Somewhat effective) was 71.9%, the “Since the start of the study, how effective do you think the treatment has been in slowing down your hair loss?” value ([4]; response: Somewhat effective) was 53.1% and the “Because” value ([4]; response: Stronger) was 21.9%. For the same compound, the “Since the beginning of the study, I have noticed a decrease of the number of hairs lost in the shower.” value ([4]; response: Strongly Agree) was 18.8%, the “Since the start of the study, I can see more hair in the areas where the serum was applied.” value ([4]; response: Strongly Agree) was 12.5% and the “Since the beginning of the study, I have noticed a decrease of the number of hairs lost in the shower.” value ([4]; response: Strongly Disagree) was 0%. For the same compound, the “Since the start of the study, I can see more hair in the areas where the serum was applied.” value ([4]; response: Strongly Disagree) was 0%, the “Because” value ([4]; response: Thicker) was 18.8% and the “Because” value ([4]; response: Thinner) was 3.1%. For the same compound, the “Since the start of the study, how effective do you think the treatment has been in increasing your hair growth/thickness?” value ([4]; response: Very effective) was 9.4%, the “Since the start of the study, how effective do you think the treatment has been in slowing down your hair loss?” value ([4]; response: Very effective) was 28.1% and the “Because” value ([4]; response: Weaker) was 0%. The “Subjects with tight hairstyles who noticed less shedding” value ([4]; water-based formula 0.02% v/v every 2 days, 6 weeks, 32 female subjects) was 28/32 (87%) and the Adverse effects ([4]; water-based formula 0.02% v/v every 2 days, 6 weeks, 32 subjects completed) was 0/32 (0%).

With `CCC(=O)N1CCN(c2nnc(-c3ccc(C)cc3)c3ccccc23)CC1` [II-4, 1-Propanone, 1-[4-[4-(4-methylphenyl)-1-phthalazinyl]-1-piperazinyl]-] the “Normalized caspase 3/7 activity” value (HepG2 cells) was “did not exhibit any caspase activation”, the “Percent Increase Proliferation of hFDPCs (%)” value [1] was “B (B represents 20-40%)” and the “micronuclei formation / genotoxic effect in TK.6 cells” value (TK.6 lymphoblasts) was “do not promote any micronuclei formation”. For the same compound, the “genotoxic effects in SOS chromotest (normalized β-galactosidase activity)” value (bacteria) was “did not exhibit any genotoxic effects”.

With `COC(=O)c1c(S(C)(=O)=O)[nH]c(-c2ccccc2)nc1=O` [VII-1, 5- Pyrimidinecarboxylic acid, 1,4-dihydro-6-(methylsulfonyl)-4-oxo-2-phenyl-, methyl ester] the “sensitizing potential (normalized ARE-luciferase activity)” value (Nrf2-ARE pathway) was “exhibited sensitizing potential”, the “Normalized caspase 3/7 activity” value (HepG2 cells) was “did not exhibit any caspase activation” and the “Percent Increase Proliferation of hFDPCs (%)” value [1] was “C (C represents larger than 40% of increased proliferation of hFDPCs)”. The “micronuclei formation / genotoxic effect in TK.6 cells” value (TK.6 lymphoblasts) was “do not promote any micronuclei formation” and the “genotoxic effects in SOS chromotest (normalized β-galactosidase activity)” value (bacteria) was “did not exhibit any genotoxic effects”.
